Results reported in patent publication US9242984B2, “Pyrazolyl derivatives as Syk inhibitors” (Merck Sharp & Dohme Corp., priority 2012, dated 2016).
Like-named read-outs stand apart in the source and are kept apart here.

Molecular target: T1, recombinant human Syk (GST-hSyk fusion protein) (Homo sapiens, UniProt P43405)
T1 construct: purchased Carna Biosciences 08-176
Assay: Homogeneous Time-Resolved Fluorescence (HTRF) assay for the recombinant human Syk enzyme
Type: biochemical
Conditions: 10-dose titration, 25 μM ATP
Method in brief: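 IC50 came from a four-parameter fit over ten doses, 10 μM to 0.508 nM, with HTRF read-out (Eu-anti-pTyr antibody, SA-APC, EDTA stop, 30 min). The enzyme, 5 pM GST-hSyk, met compound for 10 min, then phosphorylated 250 nM biotin-peptide with 25 μM ATP and 5 mM Mg for 45 min at room temperature, pH 7.5.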

[1] = IC50 class, read-out: rhSYK Activity

Cc1cc(Nc2nccc(C(F)F)n2)cc(-c2cnn(CC3CC(=O)NC3C)c2)c1 (stereo not shown) [Example 2.79, 4-{[4-(3-{[4-(difluoromethyl)pyrimidin-2-yl]amino}-5-methylphenyl)-1H-pyrazol-1-yl]methyl}-5-methylpyrrolidin-2-one]
IC50 [1]: ≤ 100 nM

Cc1cc(Nc2nccc(C(F)F)n2)cc(-c2cnn(C(C)C(C)(O)CO)c2)c1 (stereo not shown) [Example 22.3, 3-[4-(3-{[4-(difluoromethyl)pyrimidin-2-yl]amino}-5-methylphenyl)-1H-pyrazol-1-yl]-2-methylbutane-1,2-diol]
IC50 [1]: ≤ 100 nM

Cc1cc(Nc2nccc(C(F)F)n2)cc(-c2cnn(CC3OC(=O)NC3=O)c2)c1 (stereo not shown) [Example 2.74, 5-{[4-(3-{[4-(difluoromethyl)pyrimidin-2-yl]amino}-5-methylphenyl)-1H-pyrazol-1-yl]methyl}-1,3-oxazolidine-2,4-dione]
IC50 [1]: ≤ 100 nM

Cc1cc(Nc2nccc(C(F)(F)F)n2)cc(-c2cnn(CC(O)C(F)(F)F)c2)c1 (racemic) [Example 3.43, 1,1,1-trifluoro-3-[4-(3-methyl-5-{[4-(trifluoromethyl)pyrimidin-2-yl]amino}phenyl)-1H-pyrazol-1-yl]propan-2-ol]
IC50 [1]: ≤ 100 nM

Cc1cc(Nc2cc(C(F)F)ccn2)nc(-c2cnn(C(C)C3CNC(=O)C3)c2)c1 (stereo not shown) [Example 1.64, 4-{1-[4-(6-{[4-(difluoromethyl)pyridin-2-yl]amino}-4-methylpyridin-2-yl)-1H-pyrazol-1-yl]ethyl}pyrrolidin-2-one]
IC50 [1]: ≤ 100 nM

COC(=O)NCCn1cc(-c2cc(C)cc(Nc3nccc(C(F)F)n3)c2)cn1 [Example 27.2, methyl {2-[4-(3-{[4-(difluoromethyl)pyrimidin-2-yl]amino}-5-methylphenyl)-1H-pyrazol-1-yl]ethyl}carbamate]
IC50 [1]: ≤ 100 nM

Cc1cc(Nc2nccc(C(F)(F)F)n2)cc(-c2cnn(C(C)C(N)=O)c2)c1 (racemic) [Example 8.8, 2-[4-(3-methyl-5-{[4-(trifluoromethyl)-pyrimidin-2-yl]amino}phenyl)-1H-pyrazol-1-yl]propanamide]
IC50 [1]: ≤ 100 nM

Cc1cc(Nc2cc(C)c(Cl)cn2)nc(-c2cnn(CCC(=O)O)c2)c1 [Example 1.27, 3-(4-{6-[(5-chloro-4-methylpyridin-2-yl)amino]-4-methylpyridin-2-yl}-1H-pyrazol-1-yl)propanoic acid]
IC50 [1]: 100 to 1000 nM

Cc1cc(Nc2cc(C(F)F)ccn2)nc(-c2cnn(CC3(O)CCC3)c2)c1 [Example 29.2, 1-{[4-(6-{[4-(difluoromethyl)pyridin-2-yl]amino}-4-methylpyridin-2-yl)-1H-pyrazol-1-yl]methyl}cyclobutanol]
IC50 [1]: ≤ 100 nM

Cc1cc(Nc2nccc(C(F)(F)F)n2)cc(-c2cnn(CC3CNC(=O)O3)c2)c1 (stereo not shown) [Example 3.33, 5-{[4-(3-methyl-5-{[4-(trifluoromethyl)pyrimidin-2-yl]amino}-phenyl)-1H-pyrazol-1-yl]methyl}-1,3-oxazolidin-2-one]
IC50 [1]: ≤ 100 nM

CCC(C)(O)Cn1cc(-c2cc(C)cc(Nc3nccc(C(F)F)n3)c2)cn1 (stereo not shown) [Example 3.113, 1-[4-(3-{[4-(difluoromethyl)pyrimidin-2-yl]amino}-5-methylphenyl)-1H-pyrazol-1-yl]-2-methylbutan-2-ol]
IC50 [1]: ≤ 100 nM

Cc1cc(Nc2cc(C(C)(F)F)ccn2)nc(-c2cnn(CC3CNC(=O)O3)c2)c1 (stereo not shown) [Example 3.85, 5-{[4-(6-{[4-(1,1-difluoroethyl)pyridin-2-yl]amino}-4-methylpyridin-2-yl)-1H-pyrazol-1-yl]methyl}-1,3-oxazolidin-2-one]
IC50 [1]: ≤ 100 nM

Cc1cc(Nc2nccc(C(F)(F)F)n2)cc(-c2ccnn2C(C)C)c1 [Example 1.8, N-{3-methyl-5-[1-(1-methylethyl)-1H-pyrazol-5-yl]phenyl}-4-(trifluoromethyl)pyrimidin-2-amine]
IC50 [1]: 100 to 1000 nM

CCC(O)Cn1cc(-c2cc(C)cc(Nc3nccc(C(F)(F)F)n3)c2)cn1 (racemic) [Example 5.9, 1-[4-(3-methyl-5-{[4-(trifluoro-methyl)pyrimidin-2-yl]amino}-phenyl)-1H-pyrazol-1-yl]butan-2-ol]
IC50 [1]: ≤ 100 nM

Cc1cc(Nc2nccc(C(F)(F)F)n2)cc(-c2cnn(C(C)(C)CC#N)c2)c1 [Example 9.1, 3-methyl-3-[4-(3-methyl-5-{[4-(trifluoromethyl)pyrimidin-2-yl]amino}phenyl)-1H-pyrazol-1-yl]butanenitrile]
IC50 (read-out: rhSYK IC50): 9 nM | IC50 [1]: ≤ 100 nM

Cc1cc(Nc2nccc(C(F)F)n2)cc(-c2cnn(CC3OC(=O)NC3(C)C)c2)c1 (stereo not shown) [Example 3.102, 5-{[4-(3-{[4-(difluoromethyl)pyrimidin-2-yl]amino}-5-methylphenyl)-1H-pyrazol-1-yl]methyl}-4,4-dimethyl-1,3-oxazolidin-2-one]
IC50 [1]: ≤ 100 nM

Cc1cc(Nc2nccc(C(F)(F)F)n2)cc(-c2cnn(CC3OC(=O)NC3C(C)C)c2)c1 (single isomer, unassigned) [Example 23.5, 4-(1-methylethyl)-5-{[4-(3-methyl-5-{[4-(trifluoromethyl)pyrimidin-2-yl]amino}phenyl)-1H-pyrazol-1-yl]methyl}-1,3-oxazolidin-2-one]
IC50 [1]: ≤ 100 nM

COc1nc(Nc2cc(C)cc(-c3cnn(CC4CNC(=O)O4)c3)c2)ncc1F (stereo not shown) [Example 2.30, 5-[(4-{3-[(5-fluoro-4-methoxypyrimidin-2-yl)amino]-5-methylphenyl}-1H-pyrazol-1-yl)methyl]-1,3-oxazolidin-2-one]
IC50 [1]: ≤ 100 nM

Cc1cc(Nc2nccc(C(F)(F)F)n2)cc(-c2cnn(CC(=O)N3CCOCC3(C)C)c2)c1 [Example 3.13, N-(3-{1-[2-(3,3-dimethylmorpholin-4-yl)-2-oxoethyl]-1H-pyrazol-4-yl}-5-methylphenyl)-4-(trifluoromethyl)pyrimidin-2-amine]
IC50 [1]: 100 to 1000 nM

Cc1cc(Nc2nccc(C(F)F)n2)cc(-c2cnn(C3CCCC(O)C3O)c2)c1 (single isomer, unassigned) [Example 10.5, 3-[4-(3-{[4-(difluoromethyl)pyrimidin-2-yl]amino}-5-methylphenyl)-1H-pyrazol-1-yl]cyclohexane-1,2-diol]
IC50 (read-out: rhSYK IC50): 5.24 nM | IC50 [1]: ≤ 100 nM

Cc1cc(Nc2nccc(C(F)(F)F)n2)cc(-c2cnn(CC(O)CO)c2)c1 (racemic) [Example 5.15, 3-[4-(3-methyl-5-{[4-(trifluoromethyl)-pyrimidin-2-yl]amino}-phenyl)-1H-pyrazol-1-yl]propane-1,2-diol]
IC50 [1]: ≤ 100 nM

CCOC(=O)CCn1cc(-c2cccc(Nc3cc(C)ccn3)n2)cn1 [Example 1.23]
IC50 [1]: 100 to 1000 nM

CCOC(=O)CCn1cc(-c2cc(C)cc(Nc3nccc(C4CC4)n3)c2)cn1 [Example 2.41, ethyl 3-(4-{3-[(4-cyclopropylpyrimidin-2-yl)amino]-5-methylphenyl}-1H-pyrazol-1-yl)propanoate]
IC50 [1]: < 1000 nM

Cc1cc(Nc2nccc(C)n2)cc(-c2cnn(C3CCCC(O)C3O)c2)c1 (stereo not shown) [Example 10.9, 3-(4-{3-methyl-5-[(4-methylpyrimidin-2-yl)amino]phenyl}-1H-pyrazol-1-yl)cyclohexane-1,2-diol]
IC50 (read-out: rhSYK IC50): 4.8 nM | IC50 [1]: ≤ 100 nM

Cc1cc(Nc2cc(C(F)(F)F)ccn2)nc(-c2cnn(C)c2)c1 [Example 1.13, 4-methyl-6-(1-methyl-1H-pyrazol-4-yl)-N-[4-(trifluoromethyl)pyridin-2-yl]pyridin-2-amine]
IC50 [1]: ≤ 100 nM
